From paper PMC9053583, “A novel series of phenolic temozolomide (TMZ) esters with 4 to 5-fold increased potency, compared to TMZ, against glioma cells irrespective of MGMT expression” (RSC Advances, 2020)
Like-named read-outs stand apart in the source and are kept apart here.

Key:
[1] = tested on: U87-MG cells; test: CellTiter-Glo cytotoxicity against U87-MG cells; assay type: cell-based; conditions: Homo sapiens, U-87 MG, 144 hours incubation, IC50 ± SD (n = 3)
Method: (§1) Apoptosis of glioma cells induced by TMZ, occurs at least 120 hours after treatment.[7] Consequently, cells were incubated for 144 hours with specified TMZ analogues in the in vitro investigations in order to obtain more reliable IC50 values.
(§2) 1321-N1 (human astrocytoma) was maintained in DMEM medium supplemented with 2 mM L-glutamine and 10% FBS. GOS-3, (human brain mixed astro-oligodendroglioma) was maintained in DMEM medium supplemented with 2 mM L-glutamine and 10% […]. U87-MG, (human glioblastoma) and SVGp12 (normal human astroglia) were maintained in EMEM medium supplemented with 2 mM L-glutamine, 1 mM sodium pyruvate and 10% FBS. All cell lines were incubated at 37 °C and 5% CO2 in a humidified incubator. Primary BTNW cultures were maintained in Ham's F10 nutrient mixture, containing 20 mM HEPES, 2 mM glutamine and 10% FBS. Primary cultures were incubated in a humidified incubator at 37 °C.
(§3) Cells were seeded in the appropriate media in each well of a Costar 96-well plate at a density of 5 × 10^2 immortalised cells; 2 × 10^3 (primary cells). The plates were incubated at 37 °C and 5% CO2 in a humidified incubator for 24 hours to allow cells to adhere. Each of the drugs tested were dissolved in DMSO to afford a 200 mM stock solution. The stock solutions were diluted with medium to afford the final working concentrations, ensuring DMSO concentration was no greater than 0.5% (v/v). Drug concentrations were added to the cells and incubated for 144 hours. After incubation, the drug concentrations were removed and replaced with 100 μL of CellTiter-Glo® and 100 μL of media. The luminescence of each well was measured on GENios Pro plate reader. The results for each of the drug concentrations were expressed as a percentage of the control wells. For cell lines, the regression equation for a polynomial line of best fit of order 2 was used to calculate the IC50. In the case of the in vitro model used in the present study, the IC50 was defined as the concentration of drug that results in a 50% reduction in oxyluciferin production. Primary culture cells were incubated with clinically relevant concentrations for 144 hours. Viability was expressed as a percentage of the control wells. Each experiment involving cell lines was carried out in triplicate of triplicates. Experiments using patient derived primary cultures were carried out in triplicate.
(§4) Initial screening of the 25 analogues was completed using the U87-MG cell line. The most promising analogues from the initial screening were taken forward and tested against the 1321-N1, GOS-3 and SVG-p12 cell lines. The results of all 4 cell lines were compiled and the analogues that were deemed to be the most promising drug candidates were tested against primary cultures at clinically relevant concentrations.

[2] = tested on: 1321-N1; test: CellTiter-Glo cytotoxicity against 1321-N1 cells; assay type: cell-based; conditions: Homo sapiens, 144 hours incubation, IC50 ± SD (n = 3)
Method: as §1, §2, §3, §4

[3] = tested on: GOS-3; test: CellTiter-Glo cytotoxicity against GOS-3 cells; assay type: cell-based; conditions: Homo sapiens; 144 hours incubation, IC50 ± SD (n = 3)
Method: as §1, §2, §3, §4

[4] = tested on: SVGp12; test: CellTiter-Glo cytotoxicity against normal SVGp12 cell line; assay type: cell-based; conditions: Homo sapiens, 144 hours incubation, IC50 ± SD (n = 3)
Method: as §1, §2, §3, §4

[5] = tested on: BTNW914 (MGMT−); test: Cell viability of patient derived primary GBM culture BTNW914 (MGMT−); assay type: cell-based, human; conditions: 6 days incubation; for IC50: Homo sapiens, 144 h, read-out: IC50 against MGMT devoid GBM primary cells
Method: (§5) Fig. 2 (A) Cell viability of BTNW914 (MGMT−) after treatment by TMZ and phenyl TMZ ester analogues at various clinically relevant concentrations and incubation for 6 days. (B) Cell Viability of BTNW374 (MGMT+) after treatment by TMZ and phenyl TMZ ester analogues at various clinically relevant concentrations. Values are reported as the percentage of viable cells ± SD, n = 3.
(§6) Cytotoxic evaluation of the analogues was completed against 4 cell lines and 2 primary GBM cultures. The human glioma cell lines, GOS-3, U87-MG and 1321-N1 along with the human astroglial cell line, SVGp12, were purchased from The European Collection of Cell Cultures (ECCAC, UK) and Deutsche Sammlung von Mikroorganismen und Zellkulturen (DMSZ, Germany). Patient derived primary GBM cultures, BTNW374 and BTNW914, were obtained from The Brain Tumour North West Tissue Bank in collaboration with The Royal Preston Hospital. Patient data for primary cells was included as part of the ESI. ^†
as §2, §3

[6] = tested on: BTNW374 (MGMT+); test: Cell viability of patient derived primary GBM culture BTNW374 (MGMT+); assay type: cell-based, human
Method: as §5, §6, §2, §3

[7] = tested on: porcine liver esterase (PLE); test: Stability of phenolic TMZ esters on exposure to porcine liver esterase; assay type: in vitro ADME; conditions: pH 6, 37 °C
Method: The hydrolysis was monitored by the decrease in the peak area of the corresponding TMZ esters, however, due to sensitivity of the imidazotetrazine ring to pH, the experiments were carried out at pH 6 to avoid the formation of imidazoles. The validation of the analytical method also involved investigating the stability of the imidazotetrazine ring whilst ensuring PLE retained a significant level of activity.
A disodium phosphate, citric acid buffer (pH 6) was prepared by using disodium phosphate (Na2HPO4·12H2O, 200 mM) and citric acid (100 mM). A stock solution of 80 mg/100 mL of each of the TMZ esters (3h, 3i, 3j, 3k, 3l and 3n) were prepared in DMSO. The control reaction, without enzyme, was prepared by adding 3000 μL of buffer to the reaction vessel along with 56.25 μL of the stock solution. The test reaction, with enzyme, was prepared by adding 2999 μL of buffer to the reaction vessel along with 56.25 μL of TMZ ester. The final concentration of TMZ esters in the reaction vessels was 1.47 mg/100 mL. Porcine liver esterase (1 μL) was added to the test reaction at zero time (minutes). Both the control and test reactions were then incubated at 37 °C. Aliquots of 200 μL were transferred from the reaction vessels to 2 mL Eppendorf tubes, at 3 minute intervals for 30 minutes. The reaction was quenched by adding 200 μL of acetonitrile. […]

[8] = cited from earlier work
[9] = initial screening, CellTiter-Glo, read-out: IC50 against U87-MG cells
[10] = lead analogues (Table 2), read-out: IC50 U87-MG

Cn1nnc2c(C(=O)Oc3ccc(Cl)cc3)ncn2c1=O [Analogue 3j, 4-Chlorophenyl 3-methyl-4-oxo-3,4-dihydroimidazo [5,1-d][1,2,3,5] tetrazine-8-carboxylate]
IC50 [1, 9]: 96 ± 3 µM | IC50 [1, 10]: 96 ± 3 µM | IC50 [2]: 118 ± 11 µM | IC50 [3]: 54 ± 4 µM | IC50 [4]: 33 ± 1 µM | IC50 [5]: < 15 µM | cytotoxicity against MGMT positive patient derived primary culture ([6]; human, 144 h, 75 μM): generated cytotoxicity at 75 μM | melting point: 164 °C

Cn1nnc2c(C(=O)Oc3ccc(C#N)cc3)ncn2c1=O [Analogue 3k, 4-Cyanophenyl 3-methyl-4-oxo-3,4-dihydroimidazo[5,1-d][1,2,3,5]tetrazine-8-carboxylate]
IC50 [1, 9]: 138 ± 7 µM | IC50 [1, 10]: 137 ± 7 µM | IC50 [2]: 103 ± 7 µM | IC50 [3]: 151 ± 4 µM | IC50 [4]: 36 ± 3 µM | IC50 [5]: < 15 µM | cytotoxicity against MGMT positive patient derived primary culture ([6]; human, 144 h, 75 μM): generated cytotoxicity at 75 μM | Time taken to hydrolyse 50% of the ester [7]: 13.7 min | melting point: 192 °C

Cc1ccc(OC(=O)c2ncn3c(=O)n(C)nnc23)cc1 [Analogue 3n, p-Tolyl 3-methyl-4-oxo-3,4-dihydroimidazo[5,1-d][1,2,3,5]tetrazine-8-carboxylate]
IC50 [1, 9]: 376 ± 62 µM | IC50 [1, 10]: 376 ± 62 µM | IC50 [2]: 238 ± 8 µM | IC50 [3]: 314 ± 38 µM | IC50 [4]: 215 ± 26 µM | reduction in viability against MGMT devoid GBM cells ([5]; at 75 μM): greater than 50% | cytotoxicity against MGMT positive patient derived primary culture ([6]; human, 144 h, 75 μM): generated cytotoxicity at 75 μM | melting point: 164 °C

COc1ccc(OC(=O)c2ncn3c(=O)n(C)nnc23)cc1 [Analogue 3h, 4-Methoxyphenyl 3-methyl-4-oxo-3,4-dihydroimidazo [5,1-d][1,2,3,5] tetrazine-8-carboxylate]
IC50 [1, 9]: 134 ± 7 µM | IC50 [1, 10]: 134 ± 7 µM | IC50 [2]: 183 ± 1 µM | IC50 [3]: 183 ± 5 µM | IC50 [4]: 44 ± 2 µM | IC50 [5]: < 15 µM | cytotoxicity against MGMT positive patient derived primary culture ([6]; human, 144 h, 75 μM): generated cytotoxicity at 75 μM | Time taken to hydrolyse 50% of the ester [7]: 7.3 min | melting point: 172 °C

Cn1nnc2c(C(N)=O)ncn2c1=O [TMZ, 3-methyl-4-oxo-imidazo[5,1-d][1,2,3,5]tetrazine-8-carboxamide, reference compound]
IC50 [1, 9]: 696 ± 79 µM | IC50 [1, 10]: 621 ± 66 µM | IC50 [2]: 783 ± 40 µM | IC50 [3]: 696 ± 16 µM | IC50 [4]: 239 ± 6 µM | reduction of viability of MGMT devoid cells ([5]; at 15 and 75 μM): approximately 20% | cytotoxicity against MGMT positive patient derived primary culture ([6]; BTNW374, clinically relevant concentrations up to 75 μM): TMZ resistance | brain-tumour concentration [8]: 15 µM | brain-tumour concentration as share of plasma concentration [8]: approximately 20% | time frame of maximum intracranial concentration [8]: approximately 2 ± 0.8 hours
